For assay [1], the system named is falciparum malaria parasites (P. falciparum). Nature of the assay: Intracellular fluorescence Ca2+ imaging of P. falciparum in intraerythrocytic stage. In kind it is cell-based. The protocol:
Next, 1 ml of the culture of the erythrocytes that had been thus diluted was collected by centrifugation (at 1,000 g for five minutes at room temperature), then resuspended in 350 μL BSA(−) culture medium constituted by the same constituents as the BSA(−) culture medium mentioned above (hereinafter referred to as “erythrocyte resuspension (1)”).
Erythrocytes were then washed once with 10 mL BSA(−) culture medium (1000 g for 5 minutes at room temperature) and resuspended in 600 μL BSA(+) culture medium (the BSA(−) culture medium supplemented with 0.5 weight % Albumax 1 and 25 μg/mL gentamicin (Sigma)) (hereinafter referred to as “erythrocyte resuspension (2)”). Next, 100 μL of the erythrocyte resuspension (2) was inoculated in a 35 mm glass-bottomed dish (MatTek Corp.) coated with 0.1 mg/ml poly-L-lysine. After 30 minutes of incubation in an O2/CO2 incubator, suspended erythrocytes were gently washed with BSA(+) culture medium before collecting.
The glass-bottomed dish was then placed in a culture chamber in which an O2 level, a CO2 level, temperature, and humidity were maintained under conditions (O2 level: 5%, CO2 level, 5%, temperature: 37° C.) used for conventional in vitro culturing of malaria parasites.
The acquisition of the transparent images and acquisition of light emissions were carried out by the true spectral detection method developed by Leica Microsystems. The imaging was carried out at intervals of every 5 to 15 seconds for duration of 300 to 600 seconds. A fluorescence intensity of fluo4-AM was calculated by subtraction of background fluorescence (F) and normalized to minimum fluorescence during the imaging period (Fmin).

Assay [2] relates to falciparum malaria parasite FCR-3 strain. The assay can be described thus: Assay for examining inhibition of development of P. falciparum (synchronized culture, Giemsa smear parasitaemia count). The format is cell-based. The protocol: An FCR-3 strain of falciparum malaria parasite (P. falciparum) (reference document: Hatabu T, Takada T, Taguchi N, Suzuki M, Sato K, Kano S. (2005) Antimicrob Agents Chemother. 2005 February; 49(2):493-6.) was cultured in RPMI culture medium (Invitrogen/GIBCO) in accordance with the method of Trager and Jensen (reference document: Trager, W. 86 Jensen, J. B. (1976) Science 193, 673-675.). The FCR-3 strain is a strain which takes an approximately 40 hours to undergo one development/proliferation cycle of invasion of merozoites into erythrocytes, formation of ring forms, formation of trophozoites, formation of schizonts, release of mature merozoites, and invasion of the mature merozoites into erythrocytes. To the RPMI culture medium, 0.5 weight % AlubumaxI (Invitrogen), 25 mM HEPES, 24 mM sodium hydrogen carbonate, 0.5 g/L L-glutamine, 50 mg/L hypoxanthine, 25 μg/ml gentamicin (Sigma), and human erythrocytes with 5% hematocrit (provided by a healthy volunteer) were added. Further, synchronized culturing was carried out with the use of 5 weight % d-sorbitol (reference document: Lambros, C. 86 Vanderberg, J. P. (1979) J. Parasitol. 65, 418-420.) to synchronize developments of P. falciparum.
Effects of 2-APB (2-aminoethyl diphenylborinate) and LZ (luzindole) on intraerythrocytic falciparum malaria parasite development were examined with the use of a culture of falciparum malaria parasites in a ring form stage with initial parasitaemia of approximately 1%.
First, 500 μl of the culture was injected into each well of a tissue culture plate (24-well flat-bottom plate, Corning). 2-APB and LZ were dissolved in dimethyl sulfoxide (DMSO, HYBRI-MAX (Registered Trademark), Sigma) to be 10 mM and 100 mM in concentration, respectively. In this way, stock solutions of these compounds were prepared. The stock solutions were diluted with the RPMI culture medium, and were added to each well of the tissue culture plate in an amount to be a predetermined final concentration in the well. Further, DMSO was diluted with the PPMI culture medium and was added to each well of a tissue culture plate in an amount to be a predetermined final concentration in the well, and was used as a control. Culturing was carried out in each well for a predetermined period of time.
After elapse of the predetermined period of time, a drop of the erythrocytes-containing culture in each well of the tissue culture plate was smeared on a glass slide and giemsa-stained. The number of erythrocytes infected with falciparum malaria parasites out of 2000 erythrocytes was counted so as to determine parasitaemia.

The subject of assay [3] is chloroquine-resistant strain K1 of falciparum malaria parasites (P. falciparum). The protocol: (§1) An effect of 2-APB on intraerythrocytic development of a chloroquine-resistant strain K1 of falciparum malaria parasites (P. falciparum) was examined by synchronized culturing malaria parasites in ring forms with initial parasitaemia of approximately 2%. The culturing was terminated at 24 hours, 48 hours, and 72 hours from the start of the synchronized culturing, and thin smears of erythrocytes were prepared for falciparum malaria parasite counting. Culture medium with 100 μM DMSO or 100 μM 2-APB was replaced at 24 hours and 48 hours from the start of the synchronized culturing. […] Parasitaemia of ring forms (Rf), trophozoites (T), early schizonts (ES) and late schizonts (LS) is shown as mean±S.D. of 3 wells. Stages with parasitaemia of less than 0.1% are not shown.

Assay [4] deals with falciparum malaria parasite FCR-3 strain. The text has this: (§2) Giemsa-stained smears were observed by Nikon Eclipse 80i microscope (Nikon), photographed by Nikon DXM 1200F camera (Nikon) and uploaded on a personal computer by digital photograph manager software (ACT-1; Nikon). In order to measure falciparum malaria parasite size, 50 falciparum malaria parasites were randomly selected, and areas containing these falciparum malaria parasites were manually delineated with lines on a screen. Area, perimeter, and maximum diameter of the falciparum malaria parasites cells was calculated by WinROOF software package Ver.5.8.1 (Mitani, Japan).
In order to quantitatively examine the effect of 2-APB on intraerythrocytic falciparum malaria parasite development, the area, perimeter and maximum diameter (hereinafter referred to collectively as “three parameters”) of falciparum malaria parasite cells were analyzed at 15 hours, 30 hours, and 40 hours from the start of the synchronized culturing. At 40 hours from the start of the synchronized culturing, only schizonts were analyzed.
In order to investigate an effect of 2-APB in the ring form stage, 100 μM 2-APB was added to falciparum malaria parasites that were being synchronized-cultured, and sizes of the falciparum malaria parasites were measured after 10 hours of culturing and after 20 hours of culturing. In some assays (“removed at 10 h” in (f) of FIG. 6), 100 μM 2-APB was added at start of the culturing and removed after 10 hours of culturing, and then sizes of falciparum malaria parasites were measured after 20 hours of culturing (see (f) of FIG. 6). […] Fifty falciparum malaria parasites were measured in each experimental group. P values compared with the controls (in the presence of DMSO) are given in each panel (two-tailed unpaired t test with Welch's correction).

In assay [5] the test system is chloroquine-resistant strain K1 of falciparum malaria parasites. To be noted: 100 μM 2-APB; 24 hours.
Source text: as §2, §1

The subject of assay [6] is falciparum malaria parasites. Here is the method: Specimens to be subjected to the electron microscopy were fixed for approximately 2 hours in 2.5% (V/V) glutaraldehyde buffered with 0.1 M phosphate buffer (pH 7.4, at 4° C.). The specimens were then post-fixed in 1% (w/V) osmium tetroxide for 1 hour.
Assay [7] concerns falciparum malaria parasites. To be noted: cultured 30 hours in presence of 2-APB. Here is the method: ER-Tracker Red (Invitrogen). […] ER-Tracker Red was then added to the erythrocyte suspension so as to be 0.5 μM in final concentration, and the mixture was shaken at 200 rpm for 30 minutes at 37° C.
A further assay concerns malaria parasites. The conditions noted are these: cited from earlier work.

Read-outs that look alike come from different tables or passages of the source.

Take `C/C=C/[C@H]1O[C@@](O)([C@@H](C)[C@H](O)[C@H](C)[C@H]2OC(=O)/C(OC)=C/C(C)=C/[C@@H](C)[C@@H](O)[C@@H](CC)[C@@H](O)[C@H](C)C/C(C)=C/C=C/[C@@H]2OC)C[C@@H](O[C@H]2C[C@@H](O)[C@H](OC(N)=O)[C@@H](C)O2)[C@@H]1C` [CMA, concanamycin A]: the “Ca2+ oscillations” value in assay [1] (pre-treatment with 100 nM CMA, early ring forms and trophozoites) is “no effect”.

In the case of `CC(=O)NCCc1c(Cc2ccccc2)[nH]c2ccccc12` [LZ, luzindole], the “Intraerythrocytic falciparum malaria parasite development” value in assay [2] (250 μM LZ, 20, 40, 70 hours) is “clearly inhibited”. Further, the Developmental stage reached entry is “remained in a transition stage from ring forms to early trophozoites” in assay [2] (250 μM LZ, 20 hours); “most of the falciparum malaria parasites remained in the transition stage from ring forms to early trophozoites” in assay [2] (250 μM LZ, 40 hours); “remained in the transition stage from ring forms to early trophozoites even at 70 hours” in assay [2] (250 μM LZ, 70 hours).

On to `NCCOB(c1ccccc1)c1ccccc1` [2-APB, 2-aminoethyl diphenylborinate], for which the “Spontaneous Ca2+ oscillations” value in assay [1] (100 μM 2-APB, early ring form and trophozoite stages) is on record as “almost completely blocked”. The “Ca2+ fluctuations” value in assay [1] (100 μM 2-APB, late ring form, schizont and merozoite stages) was “no notable effect”. Besides, the “Amplitude of periodic Ca2+ fluctuations (mean max minus mean min F/Fmin)” value in assay [1] (2-APB, late ring form, schizont, merozoite stages, quantitative analysis) is recorded as “statistically significant effect of 2-APB was observed only in the merozoite stage”. The “Intraerythrocytic development of falciparum malaria parasites” value in assay [2] (100 μM 2-APB vs DMSO controls, 20, 30, 40 hours of synchronized culturing) was “clearly delayed”. For the same compound, the “Ring form parasitaemia at 45 hours” value in assay [2] (2-APB added at late schizont stage (28 hours)) is “significantly decreased”. The “Parasitaemia of ring forms at 40 hours” value in assay [2] (2-APB added between trophozoite and early schizont stages (21 hours), compared with the removal cases) is listed as “greater effect”. Besides, the “Number of merozoites formed in each schizont” value in assay [2] (2-APB vs DMSO, 40 hours) is “significantly smaller”. Besides, in assay [2] (2-APB, medium replaced at 40 h, 70 hours from start of synchronized culturing), the Erythrocyte parasitaemia result is reported as “substantially zero”. The Developmental stage reached result in assay [2] (2-APB, 20 hours from start of synchronized culturing) is recorded as “remained at the trophozoite stage”. In addition, the Parasite morphology entry in assay [2] (cultured in presence of 2-APB, up to 40 hours) is “abnormal morphology”. Further, the “Parasite development in 2-APB-pretreated erythrocytes” value in assay [2] (erythrocytes treated with 2-APB only in advance, 20 and 40 hours) is listed as “could develop normally”. Further, the Parasitaemia of trophozoites result in assay [3] (100 μM 2-APB, 24 hours) is on record as “tendency towards decreasing parasitaemia”. Besides, the “Intraerythrocytic malaria parasite development” value in assay [3] (2-APB vs DMSO, 48 hours) is “delayed”. The “Number of erythrocytes infected with falciparum malaria parasite” value in assay [3] (2-APB vs DMSO, 72 hours) is “much lesser”. Further, the “Effect of 2-APB on the K-1 strain” value in assay [3] (24 hour from start of assay) is “relatively weak”. Further, the “Area, perimeter and maximum diameter of parasite cells” value in assay [4] (100 μM 2-APB present for 10 hours and 20 hours vs DMSO) was “significantly smaller”; in assay [4] (100 μM 2-APB removed at 10 hours, measured at 20 hours vs DMSO) it was “no statistically significant difference”; in assay [4] (100 μM 2-APB vs DMSO, 15, 30 and 40 hours) it was “significant decreases”. For the same compound, the “Inhibitory effect by area, perimeter and maximum diameter of parasite cells” value in assay [5] was “confirmed”. Further, in assay [6] (100 μM 2-APB, 30 hours), the “Ultrafine structure (electron micrographs)” value was “highly dense chromatin masses in the nucleus and highly dense degeneration”. Also, in assay [6] (cultured in presence of 2-APB), the “Nuclear envelope and endoplasmic reticulum in electron micrographs” value was “dilated nuclear envelope and endoplasmic reticulum”. Further, in assay [7], the “Endoplasmic reticulum tracker signals” value was “became broad and extended to the cytosol”. The “Increase in concentration of calcium ion in cytoplasm brought about by melatonin” value with malaria parasites (2-APB administered to malaria parasites) is given as “suppressed”. Further, the “Promotion of calcium discharge by 2-APB itself” value in the assay on malaria parasites (malaria parasites) is “no effect”.

Turning to `C/C=C(/C)C(=O)O[C@H]1C(C)=C2[C@H]([C@@H]1OC(=O)CCCCCCC)[C@@](C)(OC(C)=O)C[C@H](OC(=O)CCC)[C@@]1(O)[C@H]2OC(=O)[C@@]1(C)O` [Tg, thapsigargin], the “Ca2+ oscillations” value in assay [1] (pre-treatment with 2 μM Tg for 30 minutes, early ring forms and trophozoites) is listed as “blocked”.

Regarding `COc1ccc2c(c1)CC[C@@H]1[C@@H]2CC[C@]2(C)[C@@H](NCCCCCCN3C(=O)C=CC3=O)CC[C@@H]12` [U73122], in assay [1] (5 minutes pre-treatment with 10 μM U73122, early ring form and trophozoite stages), the “Ca2+ oscillations” value is listed as “almost completely blocked”.

These data come from patent US20130296230A1, “METHOD FOR TREATING MALARIA, METHOD FOR KILLING MALARIA PARASITE, AND USE OF THE METHODS” (RIKEN, priority 2010, published 2013).
